From US8153808B2, “Dihydropyridone amides as P2X7 modulators” (Roche Palo Alto LLC, priority 2008, dated 2012)

Molecular target: T1, P2X7 (UniProt Q99572)
T1 sequence (Q99572 1-595): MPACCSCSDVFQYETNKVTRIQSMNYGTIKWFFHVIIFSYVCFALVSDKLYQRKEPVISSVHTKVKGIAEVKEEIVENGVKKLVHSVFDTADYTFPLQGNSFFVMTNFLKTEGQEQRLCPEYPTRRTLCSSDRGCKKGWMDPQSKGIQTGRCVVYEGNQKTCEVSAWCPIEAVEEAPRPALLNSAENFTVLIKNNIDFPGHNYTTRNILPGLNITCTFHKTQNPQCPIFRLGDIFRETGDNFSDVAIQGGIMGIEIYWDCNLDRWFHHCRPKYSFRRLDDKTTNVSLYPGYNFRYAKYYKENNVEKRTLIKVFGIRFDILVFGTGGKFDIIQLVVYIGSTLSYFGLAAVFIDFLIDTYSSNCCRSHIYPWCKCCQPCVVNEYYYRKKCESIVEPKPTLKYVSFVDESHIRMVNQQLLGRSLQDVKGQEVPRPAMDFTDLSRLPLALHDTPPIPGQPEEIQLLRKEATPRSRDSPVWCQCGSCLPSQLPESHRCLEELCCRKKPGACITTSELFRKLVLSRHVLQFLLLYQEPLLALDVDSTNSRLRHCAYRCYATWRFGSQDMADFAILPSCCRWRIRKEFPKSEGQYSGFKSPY
Test: pIC50 values for P2X7 (Table 1)
Assay type: cell-based
Procedure: Intracellular Calcium Flux (FLIPR) Assay
Stock solutions of compounds were prepared from powders as a 10 mM DMSO stock solution. These solutions were stored at RT during the two week period of these experiments to prevent freeze-thaw of the DMSO stocks. The DMSO stocks were added to the appropriate assay buffer at a concentration of 10 μM, and then diluted serially to the final concentrations that were tested. […] The aqueous solutions of compounds as well as ATP (Sigma A7699) and BzATP (Sigma B6396) were prepared fresh for each day of experiment.
1321N1 cells stably expressing the full length human P2X7 gene (1321N1-hP2X7) and HEK293 cells stably expressing the full length rat P2X7 gene (HEK293-rP2X7) were obtained from the Roche Cell Culture Facility. 1321N1-hP2X7 cells were grown in Dulbecco's Modified Eagle's Medium (DMEM) high glucose supplemented with 10% FBS and 250 μg/mL G418. HEK293-rP2X7 cells were grown in DMEM/F-12 supplemented with 10% FBS, 1 mM CaCl2, 2 mM MgCl2, 2 mM L-Glutamine and 500 μg/ml G418. Cells were split such that they never became >70% confluent.
On the day prior to the experiment, 1321N1-hP2X7 or HEK293-rP2X7 cells were released into suspension with calcium-free PBS+Versene and washed by centrifugation with calcium-free PBS to remove the Versene. Cells were resuspended in growth medium at a density of 2.5×10^5 cells/mL and seeded into black walled, clear bottom 96 well plates (50,000 cells/well) approximately 18 hr prior to intracellular calcium flux experiments.
On the day of the experiment, plates were washed with FLIPR buffer (calcium- and magnesium-free Hank's Balanced Salt Solution (HBSS) supplemented with 10 mM Hepes, 2.5 mM probenecid and 2 mM calcium chloride) using a BIO-TEK 96 channel plate washer and incubated with […] fluo-3 dye at 37° C. for one hr. The dye was then removed by plate washing and the cells were allowed to equilibrate for 20 min at room temperature with antagonist or vehicle (FLIPR buffer). Agonist (100 μM BzATP final concentration for hP2X7; 5 μM BzATP final concentration or rP2X7) was added online with the FLIPR and fluorescence measurements made at 1 sec intervals for 60 sec followed by 3 sec intervals for a further 4 min (5 min total). A final addition of 5 μM ionomycin was made and the maximal BzATP-evoked fluorescence normalized to the maximal ionomycin-evoked fluorescence.

Row | SMILES | pIC50 P2X7
1 | COc1cc(CC(=O)N2C=CC(=O)CC2c2ccc(F)cc2)c(Br)cc1Cl (stereo not drawn) [Compound 32, 1-[2-(2-Bromo-4-chloro-5-methoxy-phenyl)-acetyl]-2-(4-fluoro-phenyl)-2,3-dihydro-1H-pyridin-4-one] | 6.17
2 | Cc1cc(Br)c(CC(=O)N2C=CC(=O)CC2c2ccc(F)cc2)cc1O (stereo not drawn) [Compound 33, 1-[2-(2-Bromo-5-hydroxy-4-methyl-phenyl)-acetyl]-2-(4-fluoro-phenyl)-2,3-dihydro-1H-pyridin-4-one] | 6.18
3 | COc1ccc(CC(=O)N2C=CC(=O)CC2c2ccc(F)cc2)c(OC)c1 (stereo not drawn) [Compound 40, 1-[2-(2,4-Dimethoxy-phenyl)-acetyl]-2-(4-fluoro-phenyl)-2,3-dihydro-1H-pyridin-4-one] | 5.843
4 | COc1ccc(OC)c(CC(=O)N2C=CC(=O)CC2c2ccc(F)cc2)c1 (stereo not drawn) [Compound 42, 1-[2-(2,5-Dimethoxy-phenyl)-acetyl]-2-(4-fluoro-phenyl)-2,3-dihydro-1H-pyridin-4-one] | 5.995
5 | COCCOc1cc(CC(=O)N2C=CC(=O)C[C@H]2c2ccc(F)cc2)c(Br)cc1F [Compound 43, (S)-1-{2-[2-Bromo-4-fluoro-5-(2-methoxy-ethoxy)-phenyl]-acetyl}-2-(4-fluoro-phenyl)-2,3-dihydro-1H-pyridin-4-one] | 7.89
6 | COc1ccc(CC(=O)N2C=CC(=O)C[C@H]2c2ccc(F)cc2)cc1OC [Compound 44, (S)-1-[2-(3,4-Dimethoxy-phenyl)-acetyl]-2-(4-fluoro-phenyl)-2,3-dihydro-1H-pyridin-4-one] | 6.003
7 | COc1ccc(CC(=O)N2C=CC(=O)C[C@H]2c2cccc(F)c2)cc1OC [Compound 45, (S)-1-[2-(3,4-Dimethoxy-phenyl)-acetyl]-2-(3-fluoro-phenyl)-2,3-dihydro-1H-pyridin-4-one] | 6.006
8 | O=C1C=CN(C(=O)Cc2cc(OCCO)c(F)cc2Br)[C@H](c2ccc(F)cc2)C1 [Compound 46, (S)-1-{2-[2-Bromo-4-fluoro-5-(2-hydroxy-ethoxy)-phenyl]-acetyl}-2-(4-fluoro-phenyl)-2,3-dihydro-1H-pyridin-4-one] | 7.31
9 | Cc1cc(F)c(OCCO)cc1CC(=O)N1C=CC(=O)C[C@H]1c1ccc(F)cc1 [Compound 49, (S)-1-{2-[4-Fluoro-5-(2-hydroxy-ethoxy)-2-methyl-phenyl]-acetyl}-2-(4-fluoro-phenyl)-2,3-dihydro-1H-pyridin-4-one] | 7.12
10 | O=C1C=CN(C(=O)Cc2cc(OCCO)c(F)cc2Br)[C@H](c2cccc(F)c2)C1 [Compound 50, (S)-1-{2-[2-Bromo-4-fluoro-5-(2-hydroxy-ethoxy)-phenyl]-acetyl}-2-(3-fluoro-phenyl)-2,3-dihydro-1H-pyridin-4-one] | 7.65

Further lines, results first:

Row | pIC50 P2X7 | SMILES
11 | 6.59 | COc1cc(CC(=O)N2C=CC(=O)CC2c2ccc(F)cc2)c(Br)cc1C (stereo not drawn) [Compound 31, 1-[2-(2-Bromo-5-methoxy-4-methyl-phenyl)-acetyl]-2-(4-fluoro-phenyl)-2,3-dihydro-1H-pyridin-4-one]
12 | 5.94 | COc1cc(Br)c(CC(=O)N2C=CC(=O)CC2CC2CCCCC2)cc1OC (stereo not drawn) [Compound 34, 1-[2-(2-Bromo-4,5-dimethoxy-phenyl)-acetyl]-2-cyclohexylmethyl-2,3-dihydro-1H-pyridin-4-one]
13 | 6.815 | COc1cc(Br)c(CC(=O)N2C=CC(=O)CC2c2cccc(F)c2)cc1OC (stereo not drawn) [Compound 35, 1-[2-(2-Bromo-4,5-dimethoxy-phenyl)-acetyl]-2-(3-fluoro-phenyl)-2,3-dihydro-1H-pyridin-4-one]
14 | 7.55 | COc1cc(CC(=O)N2C=CC(=O)C[C@H]2c2ccc(F)cc2)c(Br)cc1F [Compound 36, (S)-1-[2-(2-Bromo-4-fluoro-5-methoxy-phenyl)-acetyl]-2-(4-fluoro-phenyl)-2,3-dihydro-1H-pyridin-4-one]
15 | 6.425 | COc1cc(Br)c(CC(=O)N2C=CC(=O)CC2c2cccc(C)c2)cc1OC (stereo not drawn) [Compound 37, 1-[2-(2-Bromo-4,5-dimethoxy-phenyl)-acetyl]-2-m-tolyl-2,3-dihydro-1H-pyridin-4-one]
16 | 5.325 | COc1cc(Br)c(CC(=O)N2C=CC(=O)CC2c2ccc(C)cc2)cc1OC (stereo not drawn) [Compound 38, 1-[2-(2-Bromo-4,5-dimethoxy-phenyl)-acetyl]-2-p-tolyl-2,3-dihydro-1H-pyridin-4-one]
17 | 5.45 | COc1cc(Br)c(CC(=O)N2C=CC(=O)CC2c2cccc(C#N)c2)cc1OC (stereo not drawn) [Compound 39, 3-{1-[2-(2-Bromo-4,5-dimethoxy-phenyl)-acetyl]-4-oxo-1,2,3,4-tetrahydro-pyridin-2-yl}-benzonitrile]
18 | 7.94 | COc1cc(Br)c(CC(=O)N2C=CC(=O)C[C@H]2c2cccc(F)c2)cc1OC [Compound 41, (S)-1-[2-(2-Bromo-4,5-dimethoxy-phenyl)-acetyl]-2-(3-fluoro-phenyl)-2,3-dihydro-1H-pyridin-4-one]
19 | 6.4 | COc1cc(F)c(CC(=O)N2C=CC(=O)C[C@H]2c2ccc(F)cc2)cc1OC [Compound 47, (S)-1-[2-(2-Fluoro-4,5-dimethoxy-phenyl)-acetyl]-2-(4-fluoro-phenyl)-2,3-dihydro-1H-pyridin-4-one]
20 | 6.55 | COc1cc(F)c(CC(=O)N2C=CC(=O)C[C@H]2c2cccc(F)c2)cc1OC [Compound 48, (S)-1-[2-(2-Fluoro-4,5-dimethoxy-phenyl)-acetyl]-2-(3-fluoro-phenyl)-2,3-dihydro-1H-pyridin-4-one]
21 | 7.77 | COc1cc(Cl)c(CC(=O)N2C=CC(=O)C[C@H]2c2ccc(F)cc2)cc1OC [Compound 51, (S)-1-[2-(2-Chloro-4,5-dimethoxy-phenyl)-acetyl]-2-(4-fluoro-phenyl)-2,3-dihydro-1H-pyridin-4-one]
